US6864378B2, “Integrated continuous process for anhydro sugar alcohol manufacture” (E. I. du Pont de Nemours and Company, priority 2002, dated 2005)

Assay type: physicochemical
From the text: The reaction product obtained by processes such as the above, contains about 70 to 80% by weight isosorbide and 20 to 30% undesired reaction byproducts. The reaction product thus needs to be subjected to one or more separation steps, such as evaporation, distillation or chromatographic separation, to isolate the isosorbide. Chromatographic separation is disclosed in U.S. Patent Application No. 60/246038 (filed 6, Nov. 2000). Separation by vaporization or distillation is difficult because of the low vapor pressure of isosorbide. […] Evaporation or distillation at temperatures not much higher than about 140° C. is desirable to-minimize product degradation and obtain good purity isosorbide, but the recovery is poor. At higher temperatures, e.g., 170° C., more isosorbide is recovered, but it is of poorer quality.
The sorbitans, dimers, and polymer byproducts are all considerably higher boiling than isosorbide. For example, the vapor pressure of the sorbitans is only about 0.04 mm Hg at 140° C., about one-fiftieth that of isosorbide. The dimers are even less volatile, and the polymers are practically nonvolatile. Therefore, the water vapor volatilizes most of the dianhydro sugar alcohols but not such high boiling byproducts. […]

- vapor pressure: 1.75 mm Hg
SMILES: O[C@@H]1CO[C@H]2[C@@H]1OC[C@@H]2O [isosorbide, 1,4:3,6-dianhydrosorbitol]
